Laboratory results as given in paper doi:10.1101/2023.12.04.569845, “Identification of 4-(6-((2-methoxyphenyl)amino)pyrazin-2-yl)benzoic acids as CSNK2A inhibitors with antiviral activity and improved selectivity over PIM3” (bioRxiv, 2023).
Like-named read-outs stand apart in the source and are kept apart here. One block for each compound: values may come before it.

Legend:
Test in all cases: biochemical
Design in all cases: Thermal shift (DSF, SYPRO Orange) Tm shift of recombinant kinase domains at 10 uM compound
NDR2 = target: T1, NDR2 (Homo sapiens, UniProt Q9Y2H1)
T1 construct: gene STK38L
Protocol: (§1) S23 Thermal stability kinase selectivity. The assay was performed as previously described. 9,10 Briefly, recombinant protein kinase domains at a concentration of 2 μM were mixed with 10 μM compound in a buffer containing 20 mM HEPES, pH 7.5, and 500 mM NaCl. SYPRO Orange (5000×, Invitrogen) was added as a fluorescence probe (1 µl per mL). Subsequently, temperature-dependent protein unfolding profiles were measured using the QuantStudio™ 5 realtime PCR machine (Thermo Fisher). […] The temperature was raised with a step rate of 3°C per minute. Data points were analysed with the internal software (Thermal Shift SoftwareTM Version 1.4, Thermo Fisher) using the Boltzmann equation to determine the inflection point of the transition curve.

GPRK5 = target: T2, GPRK5 (Homo sapiens, UniProt P34947)
T2 construct: gene GRK5
Protocol: as §1

EPHA4 = EPHA4 (Homo sapiens, UniProt P54764)
Protocol: as §1

EPHA7 = EPHA7 (Homo sapiens, UniProt Q15375)
Protocol: as §1

MAP3K5 = target: T3, MAP3K5 (Homo sapiens, UniProt Q99683)
T3 sequence (Q99683 1-1374): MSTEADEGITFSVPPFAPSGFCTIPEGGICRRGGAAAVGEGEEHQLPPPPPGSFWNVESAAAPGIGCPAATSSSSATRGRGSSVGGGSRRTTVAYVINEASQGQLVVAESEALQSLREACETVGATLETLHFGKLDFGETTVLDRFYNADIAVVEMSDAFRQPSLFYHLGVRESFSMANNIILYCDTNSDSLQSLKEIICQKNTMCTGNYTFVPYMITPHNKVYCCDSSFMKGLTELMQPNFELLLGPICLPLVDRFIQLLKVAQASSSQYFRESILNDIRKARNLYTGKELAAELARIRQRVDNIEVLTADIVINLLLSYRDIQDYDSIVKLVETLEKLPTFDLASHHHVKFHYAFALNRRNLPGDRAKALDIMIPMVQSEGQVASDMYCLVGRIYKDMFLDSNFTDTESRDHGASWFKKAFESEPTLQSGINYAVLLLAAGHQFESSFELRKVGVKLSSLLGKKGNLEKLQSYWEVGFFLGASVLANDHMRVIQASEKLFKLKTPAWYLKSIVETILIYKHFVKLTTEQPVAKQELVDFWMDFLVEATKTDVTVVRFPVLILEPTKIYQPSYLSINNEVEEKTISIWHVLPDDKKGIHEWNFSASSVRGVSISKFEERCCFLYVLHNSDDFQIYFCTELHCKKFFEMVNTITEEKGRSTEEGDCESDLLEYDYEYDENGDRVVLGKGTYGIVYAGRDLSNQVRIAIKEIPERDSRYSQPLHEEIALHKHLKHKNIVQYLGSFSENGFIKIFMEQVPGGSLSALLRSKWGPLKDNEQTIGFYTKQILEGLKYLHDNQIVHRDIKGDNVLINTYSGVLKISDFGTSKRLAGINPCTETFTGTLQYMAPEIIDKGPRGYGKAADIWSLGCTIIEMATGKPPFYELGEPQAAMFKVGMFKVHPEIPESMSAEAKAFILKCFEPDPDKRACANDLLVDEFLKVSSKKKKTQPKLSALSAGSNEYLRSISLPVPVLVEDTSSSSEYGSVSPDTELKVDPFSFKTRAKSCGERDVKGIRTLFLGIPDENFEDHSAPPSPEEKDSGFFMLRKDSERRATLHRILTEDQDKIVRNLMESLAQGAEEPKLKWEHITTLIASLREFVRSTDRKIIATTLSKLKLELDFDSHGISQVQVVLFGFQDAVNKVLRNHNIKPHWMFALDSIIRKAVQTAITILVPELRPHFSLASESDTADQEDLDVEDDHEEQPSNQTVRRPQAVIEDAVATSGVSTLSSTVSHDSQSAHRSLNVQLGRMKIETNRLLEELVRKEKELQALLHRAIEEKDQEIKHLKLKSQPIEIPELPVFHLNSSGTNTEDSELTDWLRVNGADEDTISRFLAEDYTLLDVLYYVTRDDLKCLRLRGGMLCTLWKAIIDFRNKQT
Protocol: as §1

MRCKa = target: T4, MRCKa (Homo sapiens, UniProt Q5VT25)
T4 construct: gene CDC42BPA
Protocol: as §1

SRC = SRC (Homo sapiens, UniProt P12931)
Protocol: as §1

LOK = target: T5, LOK (Homo sapiens, UniProt O94804)
T5 construct: gene STK10
T5 sequence (O94804 whole entry): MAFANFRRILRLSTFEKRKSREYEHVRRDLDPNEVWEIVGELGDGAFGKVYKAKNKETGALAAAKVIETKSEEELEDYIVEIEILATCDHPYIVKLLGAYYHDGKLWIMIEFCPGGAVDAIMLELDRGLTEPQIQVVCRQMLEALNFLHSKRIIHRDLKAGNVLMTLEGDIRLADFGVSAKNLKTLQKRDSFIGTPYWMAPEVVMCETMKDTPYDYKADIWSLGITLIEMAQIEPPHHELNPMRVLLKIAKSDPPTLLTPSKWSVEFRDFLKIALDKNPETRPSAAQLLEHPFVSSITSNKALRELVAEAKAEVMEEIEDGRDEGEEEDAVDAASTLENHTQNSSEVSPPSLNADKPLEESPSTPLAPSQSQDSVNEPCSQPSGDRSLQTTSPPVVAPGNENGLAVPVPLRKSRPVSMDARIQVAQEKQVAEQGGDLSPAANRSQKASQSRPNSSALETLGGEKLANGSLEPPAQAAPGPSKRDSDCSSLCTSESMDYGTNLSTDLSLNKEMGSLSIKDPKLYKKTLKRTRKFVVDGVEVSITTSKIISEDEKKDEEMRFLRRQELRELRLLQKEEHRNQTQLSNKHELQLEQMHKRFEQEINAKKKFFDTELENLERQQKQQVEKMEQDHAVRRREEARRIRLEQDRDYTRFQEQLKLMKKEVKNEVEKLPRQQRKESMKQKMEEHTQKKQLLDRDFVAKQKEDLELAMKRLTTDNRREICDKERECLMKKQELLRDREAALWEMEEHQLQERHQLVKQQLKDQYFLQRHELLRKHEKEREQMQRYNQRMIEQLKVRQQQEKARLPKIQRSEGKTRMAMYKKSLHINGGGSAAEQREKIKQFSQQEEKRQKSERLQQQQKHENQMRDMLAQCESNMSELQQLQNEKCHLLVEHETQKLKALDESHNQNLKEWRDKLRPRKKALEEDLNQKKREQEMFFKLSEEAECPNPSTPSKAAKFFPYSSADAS
Protocol: as §1

EPHA4, sequence (P54764 whole entry): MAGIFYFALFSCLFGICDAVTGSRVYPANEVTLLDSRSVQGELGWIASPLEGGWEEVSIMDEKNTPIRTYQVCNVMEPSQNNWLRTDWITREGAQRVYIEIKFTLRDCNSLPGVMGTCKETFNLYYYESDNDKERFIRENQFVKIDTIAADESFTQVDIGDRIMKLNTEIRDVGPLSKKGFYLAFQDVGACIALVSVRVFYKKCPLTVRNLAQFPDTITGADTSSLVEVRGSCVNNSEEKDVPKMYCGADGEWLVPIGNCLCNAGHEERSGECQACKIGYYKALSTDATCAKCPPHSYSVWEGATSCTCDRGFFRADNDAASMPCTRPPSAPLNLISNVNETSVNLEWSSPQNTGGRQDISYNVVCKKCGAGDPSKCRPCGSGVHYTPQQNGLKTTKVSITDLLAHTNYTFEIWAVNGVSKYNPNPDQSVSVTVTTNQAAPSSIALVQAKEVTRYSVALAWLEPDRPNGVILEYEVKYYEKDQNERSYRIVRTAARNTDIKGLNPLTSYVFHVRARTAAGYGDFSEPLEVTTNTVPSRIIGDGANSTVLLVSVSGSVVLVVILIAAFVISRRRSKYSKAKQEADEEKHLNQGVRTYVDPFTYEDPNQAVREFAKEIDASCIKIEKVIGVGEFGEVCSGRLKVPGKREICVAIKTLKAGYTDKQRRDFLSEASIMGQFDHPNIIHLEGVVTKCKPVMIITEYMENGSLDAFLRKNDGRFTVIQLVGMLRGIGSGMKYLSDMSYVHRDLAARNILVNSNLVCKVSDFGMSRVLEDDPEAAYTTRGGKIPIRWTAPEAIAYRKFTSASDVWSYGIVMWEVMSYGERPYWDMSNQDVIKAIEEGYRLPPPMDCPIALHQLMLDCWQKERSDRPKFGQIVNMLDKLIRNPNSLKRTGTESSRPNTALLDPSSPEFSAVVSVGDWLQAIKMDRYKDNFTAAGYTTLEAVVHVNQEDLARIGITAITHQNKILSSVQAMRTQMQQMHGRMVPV
T1 sequence (Q9Y2H1 whole entry): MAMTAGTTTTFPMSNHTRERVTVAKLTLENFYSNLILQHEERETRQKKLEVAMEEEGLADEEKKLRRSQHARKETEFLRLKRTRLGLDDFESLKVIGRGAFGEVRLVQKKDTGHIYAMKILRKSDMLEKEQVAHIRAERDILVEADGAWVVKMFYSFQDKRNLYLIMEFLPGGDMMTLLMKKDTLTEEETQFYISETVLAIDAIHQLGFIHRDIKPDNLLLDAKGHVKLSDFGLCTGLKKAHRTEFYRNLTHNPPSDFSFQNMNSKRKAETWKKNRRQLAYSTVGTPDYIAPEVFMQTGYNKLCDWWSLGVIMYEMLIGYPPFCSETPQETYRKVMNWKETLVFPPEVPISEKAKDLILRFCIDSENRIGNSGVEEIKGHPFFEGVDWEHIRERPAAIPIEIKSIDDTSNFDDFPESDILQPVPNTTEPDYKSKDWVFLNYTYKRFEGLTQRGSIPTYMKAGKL
EPHA7, sequence (Q15375 whole entry): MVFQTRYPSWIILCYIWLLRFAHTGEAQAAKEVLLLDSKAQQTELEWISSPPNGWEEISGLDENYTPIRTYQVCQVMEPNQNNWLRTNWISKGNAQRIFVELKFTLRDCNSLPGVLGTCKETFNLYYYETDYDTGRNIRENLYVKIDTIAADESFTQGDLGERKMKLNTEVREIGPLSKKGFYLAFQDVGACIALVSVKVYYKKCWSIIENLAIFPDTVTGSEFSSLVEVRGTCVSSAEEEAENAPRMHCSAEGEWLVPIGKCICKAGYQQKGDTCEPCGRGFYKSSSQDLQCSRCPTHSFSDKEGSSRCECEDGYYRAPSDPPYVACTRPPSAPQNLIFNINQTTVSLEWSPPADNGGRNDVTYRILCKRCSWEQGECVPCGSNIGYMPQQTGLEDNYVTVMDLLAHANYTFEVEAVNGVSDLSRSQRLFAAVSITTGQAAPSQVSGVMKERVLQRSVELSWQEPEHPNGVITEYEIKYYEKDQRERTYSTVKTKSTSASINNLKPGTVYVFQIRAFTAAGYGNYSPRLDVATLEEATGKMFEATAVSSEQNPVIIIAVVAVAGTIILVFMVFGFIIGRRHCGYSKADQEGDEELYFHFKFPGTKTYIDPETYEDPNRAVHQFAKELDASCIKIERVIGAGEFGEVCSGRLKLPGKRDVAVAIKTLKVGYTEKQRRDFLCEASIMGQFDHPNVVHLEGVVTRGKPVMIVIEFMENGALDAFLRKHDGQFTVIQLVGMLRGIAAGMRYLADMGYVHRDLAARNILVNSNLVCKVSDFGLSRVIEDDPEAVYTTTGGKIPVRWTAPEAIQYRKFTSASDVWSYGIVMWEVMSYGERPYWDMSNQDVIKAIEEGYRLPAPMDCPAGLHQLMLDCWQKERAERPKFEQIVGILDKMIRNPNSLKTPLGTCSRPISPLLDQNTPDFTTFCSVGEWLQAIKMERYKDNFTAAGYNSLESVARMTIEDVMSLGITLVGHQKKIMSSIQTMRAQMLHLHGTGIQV
SRC, sequence (P12931 whole entry): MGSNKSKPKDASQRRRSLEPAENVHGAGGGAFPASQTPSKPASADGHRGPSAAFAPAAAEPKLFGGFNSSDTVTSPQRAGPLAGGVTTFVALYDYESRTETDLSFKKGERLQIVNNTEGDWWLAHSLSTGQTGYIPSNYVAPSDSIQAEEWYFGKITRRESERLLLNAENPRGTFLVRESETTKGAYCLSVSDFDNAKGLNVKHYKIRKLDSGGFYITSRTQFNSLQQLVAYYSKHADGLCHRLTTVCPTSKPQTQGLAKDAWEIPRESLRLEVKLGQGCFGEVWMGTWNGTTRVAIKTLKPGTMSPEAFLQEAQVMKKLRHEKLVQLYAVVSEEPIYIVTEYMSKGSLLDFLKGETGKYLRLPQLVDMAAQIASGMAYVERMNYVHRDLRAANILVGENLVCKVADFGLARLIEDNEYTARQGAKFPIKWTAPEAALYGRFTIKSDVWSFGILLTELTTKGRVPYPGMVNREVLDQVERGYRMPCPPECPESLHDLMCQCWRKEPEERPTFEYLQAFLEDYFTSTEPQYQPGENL
T2 sequence (P34947 whole entry): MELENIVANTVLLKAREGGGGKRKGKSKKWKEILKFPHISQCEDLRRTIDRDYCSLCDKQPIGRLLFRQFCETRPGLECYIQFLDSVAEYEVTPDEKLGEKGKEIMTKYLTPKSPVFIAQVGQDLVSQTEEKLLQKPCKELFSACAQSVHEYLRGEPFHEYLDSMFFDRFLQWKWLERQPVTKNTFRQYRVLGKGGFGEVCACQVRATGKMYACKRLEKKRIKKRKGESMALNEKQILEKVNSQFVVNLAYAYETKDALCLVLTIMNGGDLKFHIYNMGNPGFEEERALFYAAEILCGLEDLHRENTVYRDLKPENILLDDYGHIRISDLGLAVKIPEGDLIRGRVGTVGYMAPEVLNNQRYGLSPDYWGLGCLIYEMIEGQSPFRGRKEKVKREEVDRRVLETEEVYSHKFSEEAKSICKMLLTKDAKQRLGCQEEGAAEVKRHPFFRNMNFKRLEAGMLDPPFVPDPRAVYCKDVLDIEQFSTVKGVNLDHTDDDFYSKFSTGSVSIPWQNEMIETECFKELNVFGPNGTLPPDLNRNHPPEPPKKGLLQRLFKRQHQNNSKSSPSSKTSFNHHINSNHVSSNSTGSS

ΔTm at 10 µM (NDR2; read-out: 7c): -1 °C
ΔTm at 10 µM (GPRK5; read-out: 7c): 4 °C
ΔTm at 10 µM (EPHA4; read-out: 7c): 1 °C
ΔTm at 10 µM (EPHA7; read-out: 7c): 0 °C
ΔTm at 10 µM (MAP3K5; read-out: 7c): 1 °C
ΔTm at 10 µM (MRCKa; read-out: 7c): 0 °C
ΔTm at 10 µM (SRC; read-out: 7c): 3 °C
ΔTm at 10 µM (LOK; read-out: 7c): 4 °C
SMILES: COc1ccc(OC(C)C)cc1Nc1cncc(-c2ccc(C(=O)O)cc2)n1 [7c]

ΔTm at 10 µM (NDR2; read-out: 6c): -1 °C
ΔTm at 10 µM (GPRK5; read-out: 6c): 4 °C
ΔTm at 10 µM (EPHA4; read-out: 6c): 2 °C
ΔTm at 10 µM (EPHA7; read-out: 6c): 1 °C
ΔTm at 10 µM (MAP3K5; read-out: 6c): 3 °C
ΔTm at 10 µM (MRCKa; read-out: 6c): -1 °C
ΔTm at 10 µM (SRC; read-out: 6c): 3 °C
ΔTm at 10 µM (LOK; read-out: 6c): 4 °C
SMILES: CC(C)Oc1ccc2ccn(-c3cncc(-c4ccc(C(=O)O)cc4)n3)c2c1 [6c]

ΔTm at 10 µM (NDR2; read-out: 2): -2 °C
ΔTm at 10 µM (GPRK5; read-out: 2): 6 °C
ΔTm at 10 µM (EPHA4; read-out: 2): 2 °C
ΔTm at 10 µM (EPHA7; read-out: 2): 2 °C
ΔTm at 10 µM (MAP3K5; read-out: 2): 5 °C
ΔTm at 10 µM (MRCKa; read-out: 2): 0 °C
ΔTm at 10 µM (SRC; read-out: 2): 3 °C
ΔTm at 10 µM (LOK; read-out: 2): 8 °C
SMILES: CC(C)Nc1ccc2cnn(-c3cncc(-c4ccc(C(=O)O)cc4)n3)c2c1 [compound 2, 2]
